Assay results reported in US9029399B2, “17α-hydroxylase/C17,20-lyase inhibitors” (Novartis AG, priority 2011, dated 2015).

biological target: Human CYP17 enzyme (Cytochrome P450, 17-20 lyase) (Homo sapiens (Human), UniProt P05093); assay: CYP17 lyase assay, recombinant human CYP17 enzyme, 17-α-hydroxy pregnenolone [21-3H] substrate; assay type: biochemical; conditions: recombinant human CYP17, first value of Human/Rat cell; read-out: Lyase IC 50 Human
Excerpt: 1) Cvtochrome P450, 17-20 Lyase (CYP17-Lyase) Assay Development Using Recombinant Human CYP17 Enzyme and 17-α-Hydroxy Pregnenolone [21-3H] as the Substrate
Cytochrome P450, 17-α-Hydroxylase, 17-20 lyase (CYP17) is a multi functional enzyme that plays a key role in the biosynthesis of steroid hormones. […] In the hydroxylation reaction, it converts progesterone and pregnenolone to the corresponding hydroxylated products 17-α-hydroxy progesterone and 17-α-hydroxy pregnenolone. In the lyase reaction, it catalyzes the conversion of these hydroxylated substrates to Androstenedione and Dehydroepiandrosterone (DHEA) respectively. In the Cyp17 lyase assay described here, the conversion of 17-α-hydroxy pregnenolone to Dehydroepiandrosterone and acetic acid is being monitored.
The conversion of 17-α-hydroxy pregnenolone to Dehydroepiandrosterone is accompanied by the release of acetic acid. In the Cyp17 lyase assay, 17-α-hydroxy pregnenolone labeled with tritium (3H) at position 21 is used as the substrate. Chloroform extraction removes the radioactive steroids and acetic acid is taken into aqueous layer. The tritiated acetic acid released in the assay thus extracted is quantified to determine the enzyme activity.
Human Cyp 17 gene was cloned and expressed in Adenoviral expression system in A549 cell lines. The purified cell membrane preparations were used as the source for Human CYP17 enzyme. Total protein concentration: 8 mg/mL.
For routine screening, the assay was set up with 16 μg of enzyme in 50 μL reaction volume. 17α-hydroxy pregnenolone [21-3H] was added to a final concentration of […] NADPH is used at a final concentration of 4.2 mM. Total reaction volume was made up to 50 μL with 50 mM Phosphate buffer pH 7.5. The reaction mixture was incubated at room temperature for 90 minutes with gentle shaking. The reaction was stopped by the addition of 100 μl, of buffer. 500 μl, of 5% freshly prepared activated charcoal was added to the solution and mixed well by vortexing. The samples were centrifuged at 17568×g for 5 minutes. (14000 rpm). The supernatant was carefully transferred to fresh tube and 1.3 mL of scintillation fluid was added, mixed by vortexing.
The measurements were carried out in 2.0 mL Eppendorf™ tubes. Each tube was counted for 1 minute. The amount of tritiated acetic acid released is proportional to the lyase activity. Percent lyase activity in presence of inhibitor was calculated using the formula given below.
[formula] Sample: Enzyme reaction in presence of inhibitor. Positive control: Enzyme reaction without inhibitor but containing DMSO at 1% final concentration. Blank—Contains all reagents except enzyme. % Inhibition=100%−% Lyase activity
For IC50 determination, the % inhibition was plotted as a function of inhibitor concentration. The data was fitted to sigmoidal equation using Graphpad Prism® software IV to generate IC50 values.

Human CYP17 enzyme (Cytochrome P450, 17-20 lyase), sequence (P05093 whole entry): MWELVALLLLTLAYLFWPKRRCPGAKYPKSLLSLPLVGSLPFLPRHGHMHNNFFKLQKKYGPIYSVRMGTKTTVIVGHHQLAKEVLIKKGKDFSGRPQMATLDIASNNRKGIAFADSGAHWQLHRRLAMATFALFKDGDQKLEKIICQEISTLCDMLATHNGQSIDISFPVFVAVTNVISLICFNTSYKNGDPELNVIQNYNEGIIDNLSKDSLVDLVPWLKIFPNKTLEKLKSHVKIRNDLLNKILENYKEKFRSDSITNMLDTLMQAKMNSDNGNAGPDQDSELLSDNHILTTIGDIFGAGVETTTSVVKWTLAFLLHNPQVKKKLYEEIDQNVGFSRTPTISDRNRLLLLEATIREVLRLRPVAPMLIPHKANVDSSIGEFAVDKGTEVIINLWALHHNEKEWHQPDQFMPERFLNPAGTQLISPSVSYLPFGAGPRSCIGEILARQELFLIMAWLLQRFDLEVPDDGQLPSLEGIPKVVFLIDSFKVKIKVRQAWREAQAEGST

| Compound | IC50 [nM] |
| --- | --- |
| O=C1N(c2ccnc(Cl)c2)CCN1c1cnccc1C1CC1 [Example 1A, 1-(2-chloropyridin-4-yl)-3-(4-cyclopropylpyridin-3-yl)imidazolidin-2-one] | 8 |
| O=C1N(c2cnccc2C2CC2)[C@@H]2C[C@@H]2N1c1ccnc(C(F)(F)F)c1 [Example 32A-II, (1R,5S)-2-(4-cyclopropylpyridin-3-yl)-4-(2-(trifluoromethyl)pyridin-4-yl)-2,4-diazabicyclo[3.1.0]hexan-3-one] | 6.9 |
| O=C1N(c2ccnc(C(F)(F)F)c2)CCN1c1cnccc1C1CC1 [Example 2A, 1-(4-cyclopropylpyridin-3-yl)-3-(2-(trifluoromethyl)pyridin-4-yl)imidazolidin-2-one] | 9 |
| O=C1N(c2ccnc(C(F)(F)F)c2)[C@@H]2C[C@@H]2N1c1cnccc1C1CC1 [Example 32A-I, (1S,5R)-2-(4-cyclopropylpyridin-3-yl)-4-(2-(trifluoromethyl)pyridin-4-yl)-2,4-diazabicyclo[3.1.0]hexan-3-one] | 184 |
| O=C1N(c2cc(Cl)nc(C(F)(F)F)c2)CCN1c1cnccc1C1CC1 [Example 37A, 1-(2-chloro-6-(trifluoromethyl)pyridin-4-yl)-3-(4-cyclopropylpyridin-3-yl)imidazolidin-2-one] | 5 |
| O=C1N(c2cc(C3CC3)nc(C(F)(F)F)c2)CCN1c1cnccc1C1CC1 [Example 48A, 1-(2-cyclopropyl-6-(trifluoromethyl)pyridin-4-yl)-3-(4-cyclopropylpyridin-3-yl)imidazolidin-2-one] | 4.75 |
| COc1cc(N2CCN(c3cnccc3C3CC3)C2=O)ncn1 [Example 40A, 1-(4-cyclopropylpyridin-3-yl)-3-(6-methoxypyrimidin-4-yl)imidazolidin-2-one] | 84 |
| O=C1N(c2cc3cc(F)ccc3s2)CCN1c1cnccc1C1CC1 [Example 22A, 1-(4-cyclopropylpyridin-3-yl)-3-(5-fluorobenzo[b]thiophen-2-yl)imidazolidin-2-one] | 7 |
| COc1cc(N2C(=O)N(c3cnccc3C3CC3)[C@H]3C[C@H]32)ccn1 [Example 31A-1, (1S,5R)-2-(4-cyclopropylpyridin-3-yl)-4-(2-methoxypyridin-4-yl)-2,4-diazabicyclo[3.1.0]hexan-3-one] | 169 |
| Cc1nccc(N2CCN(c3cnccc3C3CC3)C2=O)n1 [Example 44A, 1-(4-cyclopropylpyridin-3-yl)-3-(2-methylpyrimidin-4-yl)imidazolidin-2-one] | 397 |
| COc1cc(N2CCN(c3cnccc3C3CC3)C2=O)ccn1 [Example 9A, 1-(4-cyclopropylpyridin-3-yl)-3-(2-methoxypyridin-4-yl)imidazolidin-2-one] | 42 |
| O=C1N(c2cccc(C(F)(F)F)c2)CCN1c1cnccc1C1CC1 [Example 5A, 1-(4-cyclopropylpyridin-3-yl)-3-(3-(trifluoromethyl)phenyl)imidazolidin-2-one] | 6 |
| Cc1csc2ccc(N3CCN(c4cnccc4C4CC4)C3=O)cc12 [Example 15A, 1-(4-cyclopropylpyridin-3-yl)-3-(3-methylbenzo[b]thiophen-5-yl)imidazolidin-2-one] | 6.7 |
| O=C1N(c2cc3ccsc3cc2F)CCN1c1cnccc1C1CC1 [Example 28A, 1-(4-cyclopropylpyridin-3-yl)-3-(6-fluorobenzo[b]thiophen-5-yl)imidazolidin-2-one] | 548 |
| O=C1N(c2ccc3scc(C(F)(F)F)c3c2)CCN1c1cnccc1C1CC1 [Example 13A, 1-(4-cyclopropylpyridin-3-yl)-3-(3-(trifluoromethyl)benzo[b]thiophen-5-yl)imidazolidin-2-one] | 11 |
| Cc1coc2ccc(N3CCN(c4cnccc4C4CC4)C3=O)cc12 [Example 19A, 1-(4-cyclopropylpyridin-3-yl)-3-(3-methylbenzofuran-5-yl)imidazolidin-2-one] | 2.7 |
| O=C1N(c2ccnc(Cl)c2)CCN1c1cnccc1C1(O)CCCC1 [Example 35A, 1-(2-chloropyridin-4-yl)-3-[4-(1-hydroxycyclopentyl)-pyridin-3-yl]-imidazolidin-2-one] | 341 |
| O=C1N(c2cc3ccccc3s2)CCN1c1cnccc1C1CC1 [Example 6A, 1-(benzo[b]thiophen-2-yl)-3-(4-cyclopropylpyridin-3-yl)imidazolidin-2-one] | 13 |
| O=C1N(c2cc(C3CC3)ncn2)CCN1c1cnccc1C1CC1 [Example 38A, 1-(4-cyclopropylpyridin-3-yl)-3-(6-cyclopropylpyrimidin-4-yl)imidazolidin-2-one] | 48 |
| O=C1N(c2ccc3sccc3c2)CCN1c1cnccc1C1CC1 [Example 4A, 1-(benzo[b]thiophen-5-yl)-3-(4-cyclopropylpyridin-3-yl)imidazolidin-2-one] | 13 |

biological target: Rat CYP 17 Lyase (Rattus norvegicus (Rat), UniProt P11715); assay: Rat CYP17 lyase model, rat testes microsomes; assay type: biochemical; conditions: substrate 0.5 μM, second value of Human/Rat cell, read-out: Lyase IC 50 Rat
Sequence (P11715 whole entry): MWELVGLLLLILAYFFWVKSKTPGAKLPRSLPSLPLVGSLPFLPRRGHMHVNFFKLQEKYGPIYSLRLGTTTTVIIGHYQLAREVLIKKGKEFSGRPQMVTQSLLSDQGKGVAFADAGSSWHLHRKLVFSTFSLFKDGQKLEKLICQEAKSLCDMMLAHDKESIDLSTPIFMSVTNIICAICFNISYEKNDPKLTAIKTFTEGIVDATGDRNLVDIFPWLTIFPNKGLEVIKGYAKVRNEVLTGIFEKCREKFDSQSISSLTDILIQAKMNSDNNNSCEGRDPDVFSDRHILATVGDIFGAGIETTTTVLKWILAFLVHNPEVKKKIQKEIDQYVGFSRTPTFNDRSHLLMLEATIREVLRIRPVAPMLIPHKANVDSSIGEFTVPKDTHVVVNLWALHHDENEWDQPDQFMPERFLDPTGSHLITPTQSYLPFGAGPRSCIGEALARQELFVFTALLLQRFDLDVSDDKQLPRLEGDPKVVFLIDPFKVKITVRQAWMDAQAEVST
Experimental: For the Rat CYP 17 Lyase Model:
The same procedure described above was used but using rat testes microsomes as the source and with a substrate concentration of 0.5 μM.

| Compound | IC50 [nM] |
| --- | --- |
| O=C1N(c2ccnc(Cl)c2)CCN1c1cnccc1C1CC1 [Example 1A, 1-(2-chloropyridin-4-yl)-3-(4-cyclopropylpyridin-3-yl)imidazolidin-2-one] | 2.7 |
| O=C1N(c2cnccc2C2CC2)[C@@H]2C[C@@H]2N1c1ccnc(C(F)(F)F)c1 [Example 32A-II, (1R,5S)-2-(4-cyclopropylpyridin-3-yl)-4-(2-(trifluoromethyl)pyridin-4-yl)-2,4-diazabicyclo[3.1.0]hexan-3-one] | 3 |
| O=C1N(c2ccnc(C(F)(F)F)c2)CCN1c1cnccc1C1CC1 [Example 2A, 1-(4-cyclopropylpyridin-3-yl)-3-(2-(trifluoromethyl)pyridin-4-yl)imidazolidin-2-one] | 1.1 |
| COc1cc(N2CCN(c3cnccc3C3CC3)C2=O)ccn1 [Example 9A, 1-(4-cyclopropylpyridin-3-yl)-3-(2-methoxypyridin-4-yl)imidazolidin-2-one] | 4.6 |
